From publication PMC8258697 (The Journal of Biological Chemistry, 2021)
Changes are numbered by the printed parent chain.

How the values were obtained:
[1] = target: T1, RXRα total mutant LBD (Homo sapiens, UniProt P19793, E453R/F450Y/K284E/V280T/V298T); assay: Isothermal titration calorimetry, RXRα total mutant LBD; format: binding; details: 25°C
T1 construct: MBP-Asn10-His8-TEV site (N, cleaved yes); made in house; host or cells: E. coli T7 express (co-expressed with GroEL/ES)
T1 sequence (P19793 223-462 V280T/K284E/V298T/F450Y/E453R): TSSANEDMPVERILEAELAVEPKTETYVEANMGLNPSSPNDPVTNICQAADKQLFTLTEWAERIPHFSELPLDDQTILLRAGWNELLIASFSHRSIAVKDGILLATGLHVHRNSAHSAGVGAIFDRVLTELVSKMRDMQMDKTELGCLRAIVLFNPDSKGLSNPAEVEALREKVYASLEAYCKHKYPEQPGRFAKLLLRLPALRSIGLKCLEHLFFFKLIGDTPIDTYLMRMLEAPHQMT
Procedure: (§1) SI method 1: LBD pulldown
(§2) In order to verify proper dimer formation capability of the majority of the protein preparation a pulldown experiment was performed. Therefore, small centrifugal filter columns (nylon membrane with […] pore size; VWR) were loaded with 20 µl of Pierce® high capacity streptavidin agarose beads (Thermo Scientific) equilibrated in HTRF buffer [25 mM HEPES pH 7.5, 150 mM KF, 10% (w/v) glycerol, 5 mM DTT (fresh)], then 20 µl of a mixture of biotin coupled RXRα LBD (4 µg) and the respective PPAR LBD (1.4 µg) was applied. After incubation for 10 min at room temperature followed by centrifugation for 2 min and 900 x g the input mixture as well as the flowthrough was analyzed via SDS PAGE. Gels were scanned using an Li-Cor Odyssey imager (LI-COR® Biosciences GmbH, Germany). Missing bands in comparison to the input control were interpreted in two different ways. […]
(§3) The heats of dilution resulting from titrating one of the RXRα LBD proteins into the cell containing only buffer were recorded separately and subtracted from the raw ITC data obtained with compound. Data were analyzed using the NanoAnalyze software package (version 3.7.5). […] Free energy change (ΔG) was calculated using the equation […]
(§4) and from there the entropy (ΔS) was calculated from […]
µM SR11237. […] The heats of dilution resulting from titrating of protein into buffer were recorded separately and subtracted. […]

[2] = target: T2, RXRα LBD total mutant (Homo sapiens, UniProt P19793, E453R/F450Y/K284E/V280T/V298T); assay: Coactivator recruitment HTRF assay on isolated RXRα LBD total mutant (SRC1-2 peptide); format: biochemical; details: 100 nM sGFP-RXRα LBD total mutant
T2 construct: His10-tag with TEV site (N, cleaved yes); made in house; host or cells: E. coli T7 express (co-expressed with GroEL/ES)
T2 sequence (P19793 226-462 V280T/K284E/V298T/F450Y/E453R): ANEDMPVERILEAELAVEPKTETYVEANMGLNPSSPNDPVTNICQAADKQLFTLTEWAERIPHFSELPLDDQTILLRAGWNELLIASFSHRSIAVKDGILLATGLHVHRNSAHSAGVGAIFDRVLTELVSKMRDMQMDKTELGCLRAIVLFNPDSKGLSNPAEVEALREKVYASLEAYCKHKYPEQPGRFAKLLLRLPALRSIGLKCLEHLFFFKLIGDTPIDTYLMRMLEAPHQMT

[3] = target: T3, RXRα wildtype LBD (Homo sapiens, UniProt P19793); assay: Isothermal titration calorimetry, RXRα wildtype LBD; format: binding; details: 25°C
T3 construct: MBP-Asn10-His8-TEV site (N, cleaved yes); made in house; host or cells: E. coli T7 express (co-expressed with GroEL/ES)
T3 sequence (P19793 223-462): T1 sequence (P19793 223-462 V280T/K284E/V298T/F450Y/E453R) with T58V, E62K, T76V, Y228F, R231E
Procedure: as §1
as §2, with “Germany).” for “Germany). Missing bands in comparison to the input control were interpreted in two different ways.”
as §3, §4
25 injections of 2 µl were performed after an initial injection of 0.5 µl. […] The heats of dilution resulting from titrating of protein into buffer were recorded separately and subtracted. […]

[4] = target: T4, Gal4-RXRα wildtype (Homo sapiens, UniProt P19793); assay: Gal4-RXRα wildtype / VP16-SRC1-2 hybrid reporter gene assay in HEK293T cells; details: Gal4-RXRα with VP16-SRC1
T4 sequence (P19793 225-462): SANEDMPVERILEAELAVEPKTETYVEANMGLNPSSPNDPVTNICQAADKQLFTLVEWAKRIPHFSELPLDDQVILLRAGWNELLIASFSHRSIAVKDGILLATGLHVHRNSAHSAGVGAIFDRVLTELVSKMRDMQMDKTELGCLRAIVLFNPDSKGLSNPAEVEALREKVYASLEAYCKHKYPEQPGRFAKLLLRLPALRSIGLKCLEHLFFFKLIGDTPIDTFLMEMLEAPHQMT
T4 sequence (Q15788 676-701 C676S partner): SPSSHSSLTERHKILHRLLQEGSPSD

[5] = target: T5, Gal4-RXRα total mutant (Homo sapiens, UniProt P19793, E453R/F450Y/K284E/V280T/V298T); assay: Gal4-RXRα total mutant / VP16-SRC1-2 hybrid reporter gene assay in HEK293T cells
T5 sequence (P19793 225-462 V280T/K284E/V298T/F450Y/E453R): T4 sequence (P19793 225-462) with V56T, K60E, V74T, F226Y, E229R

Question: What does the source list for `CC1(C)CCC(C)(C)c2cc(C3(c4ccc(C(=O)O)cc4)OCCO3)ccc21` [SR11237]?
Answer: binding affinity (ITC) [1]: comparable affinity; stimulation of SRC1-2 coactivator recruitment [2]: no stimulation of coactivator recruitment was observed; binding affinity (ITC) [3]: comparable affinity; transactivation of reporter gene expression [4]: substantial increase in transactivation; transactivation of reporter gene expression ([5]; RXRα mutant, compared with DMSO control): substantial increase in transactivation; transactivation by the RXRα mutant in comparison with RXRα wt ([5]; at ≥ 0.1 μM SR11237): markedly reduced
